Assay results: US11607414B2, “Small molecule inhibitors of EGFR and PI3K” (The Regents of the University of Michigan, priority 2014, dated 2023)
pIC50: −log10 of the molar value.

Tests used:
[1] = tested on: COL-205 xenografts; experiment: Xenograft study, COL-205; type: in vivo, NCR nude mice; conditions: higher dose (100 mg/kg), daily for 10 days, oral
Source text: (§1) FIGS. 8A, 8B, 8C, 8D, and 8E show in vivo efficacy of MOL-201 against, HCT-116, A431, COL-205, SK-MEL5 and MDA-MB-468 xenografts. […] The method is outlined in Example 2—Xenograft Studies.
(§2) Female 6-7 week old NCR nude mice (CrTac:NCr-Foxn1nu from Taconic), 6-7 weeks old, were implanted subcutaneously with 1×10^6 to 1×10^7 cells in a 1:1 serum-free media/Matrigel® mixture into the region of the right axilla. Mice were randomized into treatment groups and treatments initiated when tumors reached 100 to 200 mg. MTX-201 was administered daily for 10 days by oral gavage as a clear yellow solution in 5% DMSO/95% PEG300, based upon individual animal body weight (0.2 ml/20 g). Subcutaneous tumor volume and body weights were measured two to three times a week. Tumor volumes were calculated by measuring two perpendicular diameters with calipers and using the formula: tumor volume=(length×width2)/2. Mice were held following cessation of treatment until tumor burdens reached −1000 mg, to allow for calculation of tumor growth delay. Percent treated/control (% T/C) was calculated by dividing the median treated tumor weight by the median control tumor weight and multiplying by 100 on the last day of treatment. Tumor growth delay (T-C) was calculated by subtracting the median time to reach evaluation size (750 mg) of the treated group by the median time to evaluation size of the control group. […]

[2] = tested on: NCI-60 cell panel; experiment: NCI-60 COMPARE panel, one-dose % growth; type: cell-based, human; conditions: 10 μM
Protocol: The method is outlined in Example 2—NCI COMPARE Panel.
The human tumor cell lines of the cancer screening panel are grown in RPMI 1640 medium containing 5% fetal bovine serum and 2 mM L-glutamine. For a typical screening experiment, cells are inoculated into 96 well microtiter plates in 100 μL at plating densities ranging from 5,000 to 40,000 cells/well depending on the doubling time of individual cell lines. After cell inoculation, the microtiter plates are incubated at 37° C., 5% CO2, 95% air and 100% relative humidity for 24 h prior to addition of experimental drugs. […]
Following drug addition, the plates are incubated for an additional 48 h at 37° C., 5% CO2, 95% air, and 100% relative humidity. […] Bound stain is subsequently solubilized with 10 mM trizma base, and the absorbance is read on an automated plate reader at a wavelength of 515 nm. […] Using the seven absorbance measurements [time zero, (Tz), control growth, (C), and test growth in the presence of drug at the five concentration levels (Ti)], the percentage growth is calculated at each of the drug concentrations levels. Percentage growth inhibition is calculated as: [(Ti−Tz)/(C−Tz)]×100 for concentrations for which Ti>/=Tz [(Ti−Tz)/Tz]×100 for concentrations for which Ti<Tz. […]

[3] = tested on: A431 xenografts; experiment: Xenograft study, A431; type: in vivo, NCR nude mice; conditions: higher dose (100 mg/kg), daily for 10 days, oral
Source text: as §1, §2

[4] = Tolerability in xenograft-bearing mice; type: in vivo; conditions: oral, daily for 10 days at 20 and 100 mg/kg
Source text: as §1, §2

[5] = tested on: SK-MEL5 xenografts; experiment: Xenograft study, SK-MEL5; type: in vivo, NCR nude mice; conditions: higher dose (100 mg/kg), daily for 10 days, oral
Source text: as §1, §2

[6] = tested on: HCT-116, A431, COL-205, SK-MEL5 and MDA-MB-468 xenografts; experiment: Xenograft studies, model not stated for the lower dose; type: in vivo, NCR nude mice; conditions: lower dose of 20 mg/kg
Source text: as §1, §2

[7] = tested on: HCT-116 xenografts; experiment: Xenograft study, HCT-116; type: in vivo, NCR nude mice; conditions: higher dose (100 mg/kg), daily for 10 days, oral
Source text: as §1, §2

[8] = tested on: phosphorylation of AKT in HCT-116 tumors; experiment: In vivo pharmacodynamics in subcutaneous HCT-116 tumors, pAKT; conditions: intraperitoneal 100 mg/kg
Source text: (§3) However, additional synthesis of MOL-162 is needed to allow a full pharmacodynamic time course study to be carried out to determine the maximal degree of target inhibition of both targets after single and repeated daily dosing.

[9] = target: panel of 39 kinases (tyrosine, serine/threonine and lipid kinases); experiment: Broad panel of 39 kinases at 10 μM; type: biochemical
Source text: Numerous hits were designed with nanomolar potency against EGFR and PIK3CA. […] A structure-activity relationship was shown for these agents against both of the biochemical targets.

[10] = tested on: phosphorylation of EGFR in HCT-116 tumors; experiment: In vivo pharmacodynamics in subcutaneous HCT-116 tumors, pEGFR; conditions: intraperitoneal 100 mg/kg
Source text: as §3

[11] = target: EGFR (Homo sapiens, UniProt P00533); experiment: Z'-LYTE biochemical kinase assay, EGFR; conditions: read-out: potency against EGFR
Chain of EGFR (P00533 25-1210): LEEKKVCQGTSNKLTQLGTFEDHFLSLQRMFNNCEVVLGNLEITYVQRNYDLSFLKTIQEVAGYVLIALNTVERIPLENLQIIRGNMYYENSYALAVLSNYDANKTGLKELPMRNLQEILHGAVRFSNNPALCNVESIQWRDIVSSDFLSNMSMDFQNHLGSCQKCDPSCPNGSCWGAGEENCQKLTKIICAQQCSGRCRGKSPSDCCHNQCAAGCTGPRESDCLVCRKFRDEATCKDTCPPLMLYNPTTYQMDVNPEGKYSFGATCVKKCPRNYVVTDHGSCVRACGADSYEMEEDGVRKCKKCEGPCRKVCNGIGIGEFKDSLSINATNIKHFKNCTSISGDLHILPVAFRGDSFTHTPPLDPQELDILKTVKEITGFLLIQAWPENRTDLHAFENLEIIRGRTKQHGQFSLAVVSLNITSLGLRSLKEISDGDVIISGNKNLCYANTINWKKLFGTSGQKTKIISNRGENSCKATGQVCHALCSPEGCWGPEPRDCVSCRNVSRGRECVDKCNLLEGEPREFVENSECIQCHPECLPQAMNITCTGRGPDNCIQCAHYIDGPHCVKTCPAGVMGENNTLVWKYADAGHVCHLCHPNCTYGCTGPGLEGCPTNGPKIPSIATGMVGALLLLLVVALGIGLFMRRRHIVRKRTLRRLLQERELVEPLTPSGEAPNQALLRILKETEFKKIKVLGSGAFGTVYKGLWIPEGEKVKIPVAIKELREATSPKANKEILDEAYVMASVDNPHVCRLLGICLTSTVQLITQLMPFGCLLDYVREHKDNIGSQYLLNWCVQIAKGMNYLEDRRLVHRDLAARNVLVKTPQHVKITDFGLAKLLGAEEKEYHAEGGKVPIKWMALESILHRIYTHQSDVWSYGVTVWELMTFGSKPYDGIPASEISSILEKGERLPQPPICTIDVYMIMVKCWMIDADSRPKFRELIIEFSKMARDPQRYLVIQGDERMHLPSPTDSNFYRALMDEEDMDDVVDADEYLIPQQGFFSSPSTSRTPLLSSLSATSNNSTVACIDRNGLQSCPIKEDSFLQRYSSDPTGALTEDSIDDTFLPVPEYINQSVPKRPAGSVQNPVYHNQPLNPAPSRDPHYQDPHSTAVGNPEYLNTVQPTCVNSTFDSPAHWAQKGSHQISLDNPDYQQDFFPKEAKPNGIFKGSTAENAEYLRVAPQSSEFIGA
Protocol: Various compounds were tested for their ability to inhibit EGFR and PIK3CA. The assays determining inhibitions are given in Example 2 Assays-Z′-LYTE® and ADAPTA.
Assays: The Z′-LYTE® biochemical assay employs a fluorescence-based, coupled-enzyme format and is based on the differential sensitivity of phosphorylated and non-phosphorylated peptides to proteolytic cleavage (FIG. 6). The peptide substrate is labeled with two fluorophores—one at each end— that make up a FRET pair. In the primary reaction, the kinase transfers the gamma-phosphate of ATP to a single tyrosine, serine or threonine residue in a synthetic FRET-peptide. […] A ratiometric method, which calculates the ratio (the Emission Ratio) of donor emission to acceptor emission after excitation of the donor fluorophore at 400 nm, is used to quantitate reaction progress.
A significant benefit of this ratiometric method for quantitating reaction progress is the elimination of well-to-well variations in FRET-peptide concentration and signal intensities. […]
Both cleaved and uncleaved FRET-peptides contribute to the fluorescence signals and therefore to the Emission Ratio. The extent of phosphorylation of the FRET-peptide can be calculated from the Emission Ratio. […]
Bar-coded Corning, low volume NBS, black 384-well plate (Corning Cat. 4514) 1. […] Read on fluorescence plate reader and analyze the data.

Question: Which “anti-tumor activity (T/C and T-C)” value [1] does the source give for `CS(=O)(=O)Nc1cc(-c2ccc3ncnc(Nc4cccc(Cl)c4)c3c2)cnc1Cl` [MOL-201, N-(2-chloro-5-(4-((3-chlorophenyl)amino)quinazolin-6-yl)pyridin-3-yl)methanesulfonamide] here?
Answer: Anti-tumor activity observed

Question: And the “% growth in NCI-60 panel (in words)” value [2]?
Answer: broad cell kill

Question: What about the “anti-tumor activity (T/C and T-C)” value [3] of the same compound?
Answer: Anti-tumor activity observed

Question: And the tolerability [4]?
Answer: well tolerated by mice with no clinical observations of toxicity

Question: What about the “anti-tumor activity (T/C and T-C)” value [5] of the same compound?
Answer: Anti-tumor activity observed

Question: What about the anti-tumor activity [6] of the same compound?
Answer: elicited anti-tumor activity

Question: And the “anti-tumor activity (T/C and T-C)” value [7]?
Answer: Anti-tumor activity observed

Question: Which “inhibition of pAKT in tumors” value [8] does the source give for `COc1ccc(Nc2ncnc3ccc(-c4cncc(NS(C)(=O)=O)c4)cc23)cc1Cl` [MOL-153, N-(5-(4-((3-chloro-4-methoxyphenyl)amino)quinazolin-6-yl)pyridin-3-yl)methanesulfonamide] here?
Answer: inhibition of pAKT

Question: And the “kinase profile (in words)” value [9]?
Answer: clean kinase profile

Question: What about the “inhibition of pEGFR in tumors” value [10] of the same compound?
Answer: not detected

Question: And the pIC50 [11]?
Answer: 6.46
